Measurements from ChEMBL document CHEMBL3045533, “Synthesis and cytotoxicity of 1-phenylethanolamine carboxamide derivatives: effects on the cell cycle” (Med Chem Res, 2010).
In brackets after ≈: the same amount, converted by molar mass. Activity calls are given as the source filed them. The rule behind the calls is not given here.

How the values were obtained:
[1] = tested on: L1210; experiment: Induction of apoptosis in Mus musculus (mouse) L1210 cells assessed as apoptotic cells at 500 uM after 3 hr by PI/annexin V-staining based flow cytometric analysis (reference value: 30%); format: functional
[2] = tested on: L1210; experiment: Induction of apoptosis in Mus musculus (mouse) L1210 cells assessed as cell death at 500 uM after 3 hr by PI/annexin V-staining based flow cytometric analysis (reference value: 5.3%); format: functional
[3] = tested on: L1210; experiment: Induction of apoptosis in Mus musculus (mouse) L1210 cells assessed as viable cells at 500 uM after 3 hr by PI/annexin V-staining based flow cytometric analysis (reference value: 32%); format: functional; settings: L1210, 3 h, read-out: Activity
[4] = tested on: L1210; experiment: Induction of apoptosis in Mus musculus (mouse) L1210 cells at 500 uM after 3 hr by PI-staining based flow cytometric analysis; format: functional, cell-based
[5] = tested on: L1210; experiment: Cytotoxicity against Mus musculus (mouse) L1210 cells after 72 hr by MTT assay; format: functional, cell-based; settings: L1210, 72 h
[6] = tested on: B16; experiment: Cytotoxicity against Mus musculus (mouse) B16 cells after 72 hr by MTT assay; format: functional, cell-based; settings: B16, 72 h
[7] = tested on: U-937; experiment: Cytotoxicity against Homo sapiens (human) U937 cells; format: functional, cell-based

| SMILES | IC50 [5] [µM] | IC50 [6] [µM] | other results |
| --- | --- | --- | --- |
| COc1ccc2[nH]c(C(=O)NCC(O)c3ccc(N)cc3)cc2c1 (centres undefined) | 50 | 87 | Activity [1]: 41%; Activity [2]: 7%; viability at 500 µM [3]: 48%; Activity [4]: Active |
| COc1ccc(/C=C/C(=O)NCC(O)c2ccc(N)cc2)cc1 (centres undefined) | > 100 | 93 |  |
| COc1cc(/C=C/C(=O)NC[C@@H](O)c2ccc(O)cc2)ccc1O |  |  | IC50 [7]: 44 µg/mL (≈ 134 µM) |
| Nc1ccc(C(O)CNC(=O)/C=C/c2ccc([N+](=O)[O-])cc2)cc1 (centres undefined) | 64 | 53 |  |
| O=C(/C=C/c1ccc([N+](=O)[O-])cc1)NCC(O)c1ccccc1 (centres undefined) | > 100 | > 100 |  |
| COc1cccc(/C=C/C(=O)NCC(O)c2ccccc2)c1 (centres undefined) | 64 | > 100 |  |
| COc1ccc2[nH]c(C(=O)NCC(O)c3ccccc3)cc2c1 (centres undefined) | 25 | 84 |  |
| COc1ccc(/C=C/C(=O)NCC(O)c2ccccc2)cc1 (centres undefined) | > 100 | > 100 |  |
